Measurements published in patent EP2535049A1 (Proyecto de Biomedicina Cima, S.L., priority 2011, dated 2012).
Several values for one entry are separate records, joined by “and”; a condition that tells them apart may be missing. Equal entries are not always repeated. Entries after “also recorded” stand apart in the source; their conditions may differ. Marks after values point to notes of the source that are not given here.

Legend:
[1] = quoted from WO2010/074783, page 109; cited from earlier work
[2] = test system: pTau; test: Immunohistochemistry of pTau (PHF-1, AT8) in J20 mice; assay type: in vivo; details: J20 mice treated for 10 weeks
Description: Results were compared with those obtained from age-matched negative littermates (controls). To test the effect of the PDE5 inhibitors in cognition capacity related to aging, a second treatment was carried out using 10-12 month-old non-transgenic (wild type) mice on an inbred C57/B6xSJL genetic background.
Twenty four hours after the fear conditioning test, animals (n=5, per group) were sacrificed and the brains removed for biochemical studies. The cortex and hippocampus were dissected, homogenized, and processed as described below for subsequent western blot analysis. Under xylazine/ketamine anesthesia, animals (n=4 per group) were perfused transcardially with saline and 4% paraformaldehyde in phosphate buffer (PB). After perfusion, brains were removed, post-fixed in the same fixative solution for 1 h at room temperature and cryoprotected in 30% sucrose solution in PB overnight at 4 °C. […]
For p-tau staining, slides were incubated in blocking solution (3% milk in TBS) and incubated overnight with primary antibody AT8 (1:50 v/v, Pierce, Woburn, MA, USA) or PHF1 (1:100 v/v, Dr. Peter Davies, Albert Einstein College, Bronx, NY, USA) at 4 °C. […] Fluorescence signals were detected with confocal microscope LSM 510 Meta (Carl Zeiss, Germany); objective Plan-neofluar 40x/1.3 oil DIC. Sections were evaluated in Z-series (0.4 microm steps) using LSM 510 Meta software.

[3] = test system: rat model of embolic stroke; details: Zhang et al. (2006); cited from earlier work
[4] = Serum and brain levels of tadalafil after oral administration (HPLC-MS); assay type: in vivo, Mouse; details: for logBB (brain): average of logBB data from Ctx, Str and Hip, n=6, spread = Standard Deviation
Description: BB is the ratio of brain versus serum concentration. […] In addition, considering values in the three brain regions, the compound distribution looks quite uniform. Table 2. Blood-brain barrier permeability, as logBB, for Tadalafil
For analysis samples were prepared as follows: • 100 µl of serum were treated with 300 µl of 1% formic acid in acetonitrile. Mixture was vortexed for 5 minutes. The supernatant after centrifugation was filtered using a HybridSPE™ (Supelco, Bellefonte, USA) cartridge and the eluate was dried under an air stream. The powder was reconstituted in 100 µl of 50:50 (v/v) ammonium formate (pH=3):acetonitrile. After centrifugation the supernatant was used for analysis. • 100 mg of brain sample were treated with 600 µl of 1% formic acid in acetonitrile. The mixture was sonicated for 10 seconds and centrifuged for 5 minutes. The supernatant after centrifugation was filtered using a HybridSPE™ (Supelco, Bellefonte, USA) cartridge and the eluate was dried under an air stream. The powder was reconstituted in 100 µl of 50:50 (v/v) ammonium formate (pH=3):acetonitrile. After centrifugation the supernatant was used for analysis.

[5] = EMEA scientific discussion for Cialis (WC500026314); cited from earlier work
[6] = test system: maternal-separated rat pups; details: Baek et al. (2011); cited from earlier work
[7] = test system: aged wild type animals (C57/b6xSJL); test: Morris water maze in aged wild type animals; assay type: in vivo, mice; details: 5-weeks treatment, 15 mg/Kg orally; aged (12-14-month-old) wild type animals; vs saline
Description: Results were compared with those obtained from age-matched negative littermates (controls). […] The MWM test was used to evaluate spatial memory as previously described (Hsiao et al., 1996; Reed et al., 2010; Ricobaraza et al., 2009). After treatments, groups of animals underwent spatial reference learning and memory testing in the MWM. The water maze was a circular pool (diameter 1.2 m) filled with water maintained at 20 °C and made opaque by the addition of non-toxic white paint. Mice were trained for three consecutive days (8 trials/day) swimming to a raised platform (visible-platform). No distal visible cues were present during this phase. The same platform location was used for all visible-platform sessions and was changed for the invisible-platform training (submerged 1 cm beneath the surface) conducted over 8 consecutive days (4 trials/day) with all visible distal cues present in this phase. […] In the probe trials the platform was removed from the pool, and the percentage of time spent in the quadrant where the platform was previously set was recorded. All trials were monitored by a camera above the center of the pool connected to a SMART-LD program (Panlab S.L., Barcelona, Spain) for subsequent analysis of escape latencies, swimming speed, path length and percent time spent in each quadrant of the pool during probe trials. […]

[8] = test system: gerbils; details: Ko et al. (2009); cited from earlier work
[9] = test system: central nervous system (CNS) function; details: doses ≤100 mg/kg orally; EMEA assessment report for Adcirca (WC500069602); cited from earlier work
[10] = BB = ratio of brain versus serum concentration, n=6 treated mice, (Standard Deviation)
[11] = concentration of tadalafil 90 minutes after oral administration of Cialis (15 mg/Kg), individual mice

SMILES: CN1CC(=O)N2[C@H](c3ccc4c(c3)OCO4)c3[nH]c4ccccc4c3C[C@@H]2C1=O [tadalafil, (6R-trans)-6-(1,3-benzodioxol-5-yl)-2,3,6,7,12,12a-hexahydro-2-methyl-pyrazino [1',2':1,6] pyrido [3,4-b]indole-1,4-dione]
- ability to cross the BBB [1]: unable to cross the BBB
- pTau levels, PHF-1 anti-p-Tau Ser-396/404 antibody labeling ([2]; hippocampal and cortical slices): decrease in pTau levels; also recorded: much more marked than in animals treated with sildenafil
- pTau pathology, anti-pTau antibody recognizing Ser202 and Thr205 (AT8) labeling ([2]; hippocampus slices): lesser pTau pathology in animals treated with tadalafil than with sildenafil
- neurological functional recovery [3]: improves neurological functional recovery
- logBB (Ctx) [4, 10]: -0.89 (0.16)^b
- logBB (Hip) [4, 10]: -0.81 (0.17)^b
- logBB (Str) [4, 10]: -0.98 (0.13)^b
- Hip ([4]; Hippocampus, 90 minutes after oral administration of Cialis (15 mg/Kg), individual mice): 0.45 µM and 0.91 µM and 1.54 µM and 2.19 µM and 1.48 µM and 1.35 µM
- Ctx ([4]; Prefrontal Cortex, 90 minutes after oral administration of Cialis (15 mg/Kg), individual mice): 0.61 µM and 1.25 µM and 1.22 µM and 1.35 µM and 0.73 µM and 0.91 µM
- Str ([4]; Striatum, 90 minutes after oral administration of Cialis (15 mg/Kg), individual mice): 0.39 µM and 0.82 µM and 1.09 µM (2×) and 0.72 µM and 0.93 µM
- logBB (brain) [4]: -0.89+/-0.09
- logBB (brain) ([4]; listed as Tadalafil): -0.89 (0.09)^b
- Serum (µM) [4, 11]: 4,95 µM
- concentration at 90 min [4, 11]: 9.65 µM and 7.27 µM and 10.23 µM and 8.10 µM
- Kp at 90 min ([4]; mouse, oral, 15 mg/Kg, from logBB of the three brain areas): ~0.12
- concentration at 90 min ([4]; mouse, serum, oral, 15 mg/Kg, concentration of tadalafil 90 minutes after oral administration of Cialis (15 mg/Kg), individual mice): 6.53 µM
- observed in the central nervous system [5]: not observed
- depressive symptoms, memory impairment, apoptosis and cell proliferation in the hippocampus [6]: improves depressive symptoms, ameliorates memory impairment, as well as suppresses apoptosis and enhances cell proliferation
- learning ability and memory retention in the MWM [7]: improved learning ability and memory retention
- short-term memory [8]: improves short-term memory
- effects on central nervous system (CNS) function [9]: no effects

SMILES: CCCc1nn(C)c2c(=O)[nH]c(-c3cc(S(=O)(=O)N4CCN(C)CC4)ccc3OCC)nc12 [sildenafil]
- learning ability and memory retention in the MWM [7]: only observed in the FC test
